Columns and labels:
A2780 cell line = tested on: A2780 cell line; design: method as in PMID 32578983; settings: 24 h incubation; cited from earlier work
[1] = tested on: cisplatin-resistant ovarian carcinoma (A2780R); experiment: in vitro cytotoxicity, MTT assay; type: cell-based, human; settings: mean ± SD, at least three independent experiments
Protocol: (§1) The testing was performed on the following human cancer cell lines: breast adenocarcinoma (MCF-7), osteosarcoma (HOS), lung adenocarcinoma (A549), prostate adenocarcinoma (PC-3), ovarian carcinoma (A2780), cisplatin-resistant ovarian carcinoma (A2780R) and colorectal adenocarcinoma (Caco-2) obtained from ATCC collection of cell lines and cultivated according to producer’s instructions.

[2] = tested on: ovarian carcinoma (A2780); experiment: in vitro cytotoxicity, MTT assay; type: cell-based, human; settings: mean ± SD, at least three independent experiments
Protocol: as §1

[3] = tested on: lung adenocarcinoma (A549); experiment: in vitro cytotoxicity, MTT assay; type: cell-based, human; settings: mean ± SD, at least three independent experiments
Protocol: as §1

[4] = tested on: breast adenocarcinoma (MCF-7); experiment: in vitro cytotoxicity, MTT assay; type: cell-based, human; settings: mean ± SD, at least three independent experiments
Protocol: as §1

[5] = tested on: prostate adenocarcinoma (PC-3); experiment: in vitro cytotoxicity, MTT assay; type: cell-based, human; settings: mean ± SD, at least three independent experiments
Protocol: as §1

THP-1 cells = experiment: intracellular production of reactive oxygen species, DCFH2-DA; type: cell-based, human; settings: THP-1, 200 nM, 23.5 h; pyocyanin 100 μM as radical-forming control
Protocol: THP-1 cells were used for the determination of the potential of tested compounds to initiate the intracellular ROS production, as was described previously with some minor modifications. Cells in serum-free RPMI 1640 medium without phenol red were seeded into black 96-well plates (5 × 10^4 cells/100 µL/well). After 2 h of incubation, the cells were treated with copper(II) complexes 1–5 at a concentration of 200 nM, and pyocyanin at a final concentration of 100 μM was added into control group to trigger production of reactive oxygen species (ROS), respectively. After the incubation at 37 °C for either 1.5 h or 23.5 h, dichlorofluorescin diacetate (DCFH2-DA) (5 μg/mL) was added and cells were kept under the same conditions hereafter. Thirty minutes later, fluorometric measurement of the fluorescent product DCF was conducted using a Tecan Infinite F200 microplate reader (Tecan, Männedorf, Switzerland) with λ(ex./em.) = 485/520 nm.

pUC19 plasmid DNA = experiment: nuclease-like activity, plasmid DNA cleavage; type: biochemical
[6] = tested on: NF-κB/AP-1 in THP-1-XBlue-MD2-CD14 cells; experiment: LPS-stimulated NF-κB/AP-1 activity, SEAP reporter; type: cell-based, human; settings: complexes applied at 200 nM and 50 nM, 1 h pre-treatment, read 24 h after LPS
Protocol: The activity of transcription factors NF-κB/AP-1 was evaluated using the THP-1-XBlue^TM-MD2-CD14 cell line [obtained from Invivogen (San Diego, CA, USA)], expressing an NF-κB/AP-1-inducible secreted embryonic alkaline phosphatase (SEAP) reporter gene, as was described previously. The complexes 1–5 were applied to the cells at the concentrations of 200 nM and 50 nM, pomiferin (at 200 nM), and a reference drug prednisone at 1 μM, respectively. Lipopolysaccharide (LPS) from E. coli 0111:B4 (Sigma-Aldrich) dissolved in PBS was used to trigger an inflammation-like reaction. The activity of the SEAP was determined by Quanti-Blue^TM reagent (Invivogen, San Diego, CA, USA) according to the manufacturer’s instructions 24 h after lipopolysaccharide stimulation. The activity of NF-κB/AP-1 was determined spectrophotometrically using the FLUOstar Omega microplate reader (BMG Labtech, Ortenberg, Germany) at 655 nm and compared with that of the vehicle.

osteosarcoma (HOS) = experiment: in vitro cytotoxicity, MTT assay; type: cell-based, human; settings: mean ± SD, at least three independent experiments
[7] = tested on: THP-1 human monocytic leukemia cell line; experiment: relative cell viability, WST-1; type: cell-based; settings: serum-free medium, 24 h, six independent experiments
Protocol: The THP-1 human monocytic leukemia cell line was purchased from the European Collection of Cell Cultures (ECACC, Salisbury, UK). Cells were cultured in an RPMI 1640 medium containing stabilized 2 mM L-glutamine (Biosera, Nuaille, France) supplemented with the mixture of antibiotics [100 U/mL penicillin and […] (Biosera, Nuaille, France)], and 10% foetal bovine serum (FBS) (HyClone, Marlborough, MA, USA). The cells were kept in an incubator at 37 °C in an atmosphere of air containing 5% CO2 and 100% humidity.
The relative cell viability of floating monocytes THP-1 were determined after 24 h incubation in a serum-free medium with compounds 1–5 dissolved in N,N-dimethylformamide (DMF) at increasing concentrations (20–0.125 µM) by the cell proliferation reagent WST-1 (Roche, Basel, Switzerland) according to the manufacturer’s manual, as we described previously. The IC50 values were calculated from resultant viability curves by four-parameter logistic (4PL) analysis.

[8] = tested on: colorectal adenocarcinoma (Caco-2); experiment: in vitro cytotoxicity, MTT assay; type: cell-based, human; settings: mean ± SD, at least three independent experiments
[9] = tested on: primary culture of human hepatocytes (Hep); experiment: toxicity against primary culture of human hepatocytes; type: cell-based; settings: tested range 0.1–100 μM
[10] = tested on: Ea.Hy 926 endothelial hybrid cells; design: method as in PMID 27936296; settings: read-out: IC50 Ea.Hy 926 healthy endothelial hybrid cells; cited from earlier work
U-87 MG glioblastoma = tested on: U-87 MG glioblastoma; design: method as in PMID 27936296; settings: 72 h incubation; cited from earlier work
518A2 melanoma cells = tested on: 518A2 melanoma cells; design: method as in PMID 23973682; settings: 72 h incubation; cited from earlier work
[11] = tested on: KB-V1/Vbl cervix carcinoma cells; design: method as in PMID 27936296; settings: 72 h incubation; cited from earlier work
[12] = tested on: Panc-1 pancreas carcinoma cells; design: method as in PMID 27936296; settings: 72 h incubation; cited from earlier work
DLD-1 colon carcinoma = tested on: DLD-1 colon carcinoma; design: method as in PMID 27936296; settings: 72 h incubation; cited from earlier work
[13] = tested on: MCF-7/Topo breast adenocarcinoma cells; design: method as in PMID 27936296; settings: 72 h incubation; cited from earlier work
[14] = tested on: 518A2, Panc-1, MCF-7/Topo, KB-V1/Vbl, DLD-1, U-87 MG cancer cell lines; design: method as in PMID 27936296; settings: range over cell lines; read-out: IC50 values on the mentioned cancer cell lines; cited from earlier work
[15] = tested on: caspase 3 (Casp-3) in THP-1 cells; experiment: Western blotting of apoptosis-related proteins; type: cell-based, human; settings: THP-1, complexes 4 µM, 24 h, Western blot; for proteolytically activated Casp-3 (verified by cleaved PARP-1): cisplatin 10 µM
Protocol: In addition to the above-mentioned methods, the Western blotting method was used to shed light on the mechanisms associated with caspase 3 activation in the THP-1 cells. Two and a half milliliters of floating THP-1 monocytes resuspended in a serum-free RPMI 1640 medium were seeded into 6-well plates at the concentration of 10^6 cells/mL. Two hours later, complexes 3 and 5 were added at the concentration level of 4 µM. After 24 h incubation, the cells were collected by centrifugation (3000 g/5 min/4 °C), washed by cold PBS and resuspended in an ice-cold lysis buffer (50 mM Tris-HCl pH 7.5, 1 mM EGTA, 1 mM EDTA, 1 mM sodium orthovanadate, 50 mM sodium fluoride, 5 mM sodium pyrophosphate, 270 mM sucrose) with Roche cOmplete protease inhibitors (Roche Diagnostics, Basel, Switzerland). The cell lysates were centrifuged at 3000 g/5 min/4 °C and supernatants were mixed with a 5x Laemmli buffer [containing 250 mM Tris-HCl pH 6.8, 10% (w/v) SDS, 30% (v/v) glycerol, 5% (v/v) β-mercaptoethanol, 0.04% (w/v) bromphenol blue] and incubated at 70 °C for 5 min. […] The membranes were incubated at 4 °C for 16 h with a primary anti-cleaved caspase 3 (p17) antibody at the dilution 1:1000 (Cell Signaling, Danvers, MA, USA; products No. 9664), and an Apoptosis WB Cocktail (Abcam, Cambridge, UK; product No. ab136812) at the dilution recommended by the provider to detect β-actin, cleaved poly-(ADP-ribose) polymerase (PARP) and pro-caspase 3. After washing in a TBST buffer, the secondary anti-rabbit IgG antibody (Sigma-Aldrich, product No. A0545) was diluted 1:2500 and applied to the membranes, which were then incubated for 1 h at the laboratory temperature (~22 °C). The amount of bound secondary antibody was determined using an ECL reagent (Bio-Rad, Hercules, CA, USA). Chemiluminescence was detected using a Syngene PXi4 chemiluminescence imaging system (Cambridge, UK).

A2780 cells [16] = experiment: cell cycle analysis by flow cytometry; type: cell-based, human; settings: A2780, 15 µM, 24 h; untreated control 21.4 ± 0.8%
Protocol: Human ovarian cancer cell line A2780 (Sigma, Darmstadt, Germany) were used for this study. Cells were cultivated at 37 °C under a 5% CO2 atmosphere in an RPMI 1640 medium (Sigma Aldrich, Darmstadt, Germany) supplemented with (the final concentrations in medium): L-glutamine (2 mM), fetal bovine serum (FBS, 10%) and PenStrep (5 U penicillin, 50 µg streptomycin/mL).
After 24 h, the cells were washed once with PBS (0.1 M, pH 7.4) and cell cycle analysis was performed according to the protocol of BD Cycletest^TM Plus DNA kit (Becton Dickinson, Franklin Lakes, NJ, USA). Measurements were performed using BD FACSVerse flow cytometer (Becton Dickinson, Franklin Lakes, NJ, USA) in 3 independent experiments, each done in duplicate, while at least 5 × 10^3 events were recorded for each sample.

A2780 cells [17] = experiment: Annexin V/propidium iodide cell death assay, flow cytometry; type: cell-based, human; settings: A2780, 15 µM, 24 h; mean of three experiments
Protocol: Both methods were performed according to the manufacturers’ protocols with 1 modification in the caspase induction assay, which was the use of the CellEvent^TM Caspase-3/7 Green Detection Reagent only for detection of Caspase-3/7 activation. […] After 24 h, the cells were washed once with PBS (0.1 M, pH 7.4), detached with trypsin (0.25% in ethylenediaminetetraacetic acid (EDTA), Sigma-Aldrich), resuspended in 500 µL of the culture medium and divided into 2 separate tubes, the first for apoptosis assay and the second one for caspase activation analysis. After staining with appropriate dyes, samples were analyzed on a BD FACSVerse flow cytometer (Becton Dickinson, Franklin Lakes, NJ, USA) in 3 separate experiments, while at least 10^4 events were recorded for each sample prepared in duplicate.

SMILES | IC50 (A2780 cell line) [µM] | IC50 [1] [µM] | IC50 [2] [µM] | IC50 [3] [µM] | IC50 [4] [µM] | IC50 [5] [µM] | ROS production, long term (THP-1 cells) | inhibition of LPS-stimulated NF-κB/AP-1 activation [6] | IC50 (osteosarcoma (HOS)) [µM] | IC50 [7] [µM] | IC50 [8] [µM] | IC50 [9] [µM] | IC50 [10] [µM] | proteolytically activated Casp-3 (verified by cleaved PARP-1) [15] | other results
c1cnc2c(c1)ccc1cccnc12 [phen, 1,10-phenanthroline] | > 100 |  |  |  |  |  |  |  |  |  |  |  |  |  | 
CC(C)=CCc1c2c(c3occ(-c4ccc(O)c(O)c4)c(=O)c3c1[O-])C=CC(C)(C)O2.CO.CO.O=[N+]([O-])[O-].[Cu+2].c1ccc(-c2ccccn2)nc1 [Complex 1, (3-(3,4-dihydroxyphenyl)-8,8-dimethyl-6-(3-methylbut-2-en-1-yl)-4H,8H-benzo[1,2-b:3,4-b′]dipyran-4-one-5-olato-κ^2O4:O5)(2,2′-bipyridine–κ^2N:N)copper(II) nitrate methanol disolvate] |  | 5.6 ± 0.3 | 12.1 ± 1.5 | 20.8 ± 1.5 | 23.8 ± 0.2 | 22.1 ± 1.9 | elevated the ROS levels similarly as pyocyanin | able to inhibit | 21.5 ± 1.4 | 4 ± 1.1 | 13.7 ± 7.4 | > 100 |  |  | plasmid DNA nicked to OC-form (pUC19 plasmid DNA; 10 µM, water-containing medium (10% DMF), 37 °C, 1 h): ca. 30%; DNA cleavage in the presence of ROS scavengers (KI, NaN3, DMSO) (pUC19 plasmid DNA; 0.66 mM H2O2, scavengers equimolar to complex): decreased by DMSO
O=c1c(-c2ccc(O)cc2)coc2cc(O)cc([O-])c12.O=c1c(-c2ccc(O)cc2)coc2cc(O)cc([O-])c12.[Cu+2] [[Cu(L)2], bis[3-(4-hydroxyphenyl)-7-hydroxy-4H-benzopyran-4-one-5-olato-κO^2] copper(II)] |  |  |  |  |  |  |  |  |  |  |  |  | 20.1 ± 0.7 |  | IC50 (U-87 MG glioblastoma): 30.2 ± 5 µM; IC50 (518A2 melanoma cells): 10.9 ± 1.4 µM; IC50 [11]: 8 ± 0.2 µM; IC50 [12]: 16.9 ± 0.8 µM; IC50 (DLD-1 colon carcinoma): 21.2 ± 1.8 µM; IC50 [13]: 15 ± 1.5 µM
N.N.[Cl][Pt][Cl] [cisplatin, reference compound] |  | > 80 | 26.3 ± 2.1 | > 80 | 30.8 ± 1.8 | > 80 |  |  | 30 ± 5.9 |  |  | > 80 | 17.3 ± 1.9 | detected | IC50 [14]: 4 to 32.6 µM; cells in the S phase of the cell cycle (A2780 cells [16]): 51.4 ± 2.2%; Annexin V +/PI + cells (late apoptotic/secondary necrotic) (A2780 cells [17]): 23.7 ± 2.0%; Annexin V +/PI − cells (early apoptotic) (A2780 cells [17]): 41.5 ± 0.8%
c1ccc(-c2ccccn2)nc1 [bipy, 2,2′-bipyridine] | > 100 |  |  |  |  |  |  |  |  |  |  |  |  |  | 
CC(C)=CCc1c2c(c3occ(-c4ccc(O)c(O)c4)c(=O)c3c1[O-])C=CC(C)(C)O2.CO.CO.O=[N+]([O-])[O-].[Cu+2].c1cnc2c(c1)ccc1cccnc12 [Complex 3, (3-(3,4-dihydroxyphenyl)-8,8-dimethyl-6-(3-methylbut-2-en-1-yl)-4H,8H-benzo[1,2-b:3,4-b′]dipyran-4-one-5-olato-κ^2O4:O5)(1,10-phenanthroline–κ^2N:N)copper(II) nitrate methanol disolvate] |  | 2.9 ± 1.2 | 5.8 ± 2.2 | 3.5 ± 0.2 | 5.9 ± 0.6 | 13 ± 1.4 | highest pro-oxidant potential of all the complexes | no influence on the activity | 3.5 ± 0.1 | > 10 | 4.2 ± 1.9 | > 100 |  | detected | levels of pro-caspase 3 (pro-Casp-3) [15]: dramatically decreased

From PMC8305652, “Copper(II) Complexes Containing Natural Flavonoid Pomiferin Show Considerable In Vitro Cytotoxicity and Anti-inflammatory Effects” (International Journal of Molecular Sciences, 2021)
